Results taken from patent US9006464B2, “Substituted cyclopentanes having prostaglandin activity” (Allergan, Inc., priority 2007, dated 2015).
One block for each compound: values may come before it.

Key:
[1] = target: T1, EP2 (Homo sapiens, UniProt P43116); experiment: EP2 cAMP assay; type: cell-based
Excerpt: (§1) U.S. patent application Ser. No. 11/553,143, filed on Oct. 26, 2006, incorporated by reference herein, describes the methods used to obtain the in vitro data in Table 1 below.

[2] = target: T1, EP2; experiment: EP2 Ca2+ signal assay; type: cell-based
Excerpt: as §1

[3] = target: T2, EP4 (Homo sapiens, UniProt P35408); experiment: EP4 Ca2+ signal assay; type: cell-based
Excerpt: as §1

[4] = target: T3, DP (Homo sapiens, UniProt Q13258); experiment: Other receptors Ca2+ assay, DP; type: cell-based; details: DP receptor
T3 sequence (Q13258 1-359): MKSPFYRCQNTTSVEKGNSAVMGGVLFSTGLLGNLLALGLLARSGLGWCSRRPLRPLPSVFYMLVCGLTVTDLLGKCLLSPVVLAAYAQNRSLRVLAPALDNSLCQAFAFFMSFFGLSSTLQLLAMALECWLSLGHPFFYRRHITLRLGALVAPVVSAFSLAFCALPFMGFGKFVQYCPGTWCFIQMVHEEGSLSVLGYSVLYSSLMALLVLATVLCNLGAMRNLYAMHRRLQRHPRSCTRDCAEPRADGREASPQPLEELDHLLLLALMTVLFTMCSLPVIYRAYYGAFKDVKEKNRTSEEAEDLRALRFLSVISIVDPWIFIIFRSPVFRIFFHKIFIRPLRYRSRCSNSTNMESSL
Excerpt: as §1

[5] = target: T2, EP4; experiment: EP4 binding (Ki)
Excerpt: as §1

[6] = target: T1, EP2; experiment: EP2 binding (Ki)
Excerpt: as §1

[7] = target: T4, TP (Homo sapiens, UniProt P21731); experiment: Other receptors Ca2+ assay, TP; type: cell-based; details: TP receptor
T4 sequence (P21731 1-343): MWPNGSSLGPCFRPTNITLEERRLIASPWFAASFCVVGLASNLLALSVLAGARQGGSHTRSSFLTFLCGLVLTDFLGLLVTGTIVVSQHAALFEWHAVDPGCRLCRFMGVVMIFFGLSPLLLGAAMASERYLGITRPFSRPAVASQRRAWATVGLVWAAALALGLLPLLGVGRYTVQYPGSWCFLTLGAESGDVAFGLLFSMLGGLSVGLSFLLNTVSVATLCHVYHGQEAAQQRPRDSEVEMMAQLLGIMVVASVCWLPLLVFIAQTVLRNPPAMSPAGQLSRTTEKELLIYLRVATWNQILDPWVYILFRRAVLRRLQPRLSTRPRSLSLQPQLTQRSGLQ
Excerpt: as §1

[8] = target: T5, EP3 (Homo sapiens, UniProt P43115); experiment: Other receptors Ca2+ assay, EP3; type: cell-based; details: EP3 receptor
T5 sequence (P43115 1-390): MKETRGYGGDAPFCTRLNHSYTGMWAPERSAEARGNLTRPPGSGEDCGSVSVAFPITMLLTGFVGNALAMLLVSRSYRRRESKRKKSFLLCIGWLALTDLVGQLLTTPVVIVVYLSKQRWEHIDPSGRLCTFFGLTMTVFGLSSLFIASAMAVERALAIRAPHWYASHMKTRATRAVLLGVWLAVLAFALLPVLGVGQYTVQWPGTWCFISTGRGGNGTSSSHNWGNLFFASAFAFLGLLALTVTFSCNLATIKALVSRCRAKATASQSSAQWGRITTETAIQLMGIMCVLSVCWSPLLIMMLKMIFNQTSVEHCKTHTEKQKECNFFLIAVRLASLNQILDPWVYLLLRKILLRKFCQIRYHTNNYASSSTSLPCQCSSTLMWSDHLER
Excerpt: as §1

[9] = system: DOG; experiment: Dog ocular hyperemia; type: in vivo; details: Conc. 0.01 g/100 mL
Excerpt: (§2) U.S. Pat. No. 7,091,231, incorporated by reference herein, describes the methods used to obtain the in vivo test results presented in Table 2.

[10] = system: DOG; experiment: Dog intraocular pressure test; type: in vivo; details: Conc. 0.01 g/100 mL
Excerpt: as §2

[11] = system: MONKEY; experiment: Monkey intraocular pressure test; type: in vivo; details: Conc. 0.01 g/100 mL
Excerpt: as §2

[12] = target: T6, EP1 (Homo sapiens, UniProt P34995); experiment: Other receptors Ca2+ assay, EP1; type: cell-based; details: EP1 receptor
T6 sequence (P34995 1-402): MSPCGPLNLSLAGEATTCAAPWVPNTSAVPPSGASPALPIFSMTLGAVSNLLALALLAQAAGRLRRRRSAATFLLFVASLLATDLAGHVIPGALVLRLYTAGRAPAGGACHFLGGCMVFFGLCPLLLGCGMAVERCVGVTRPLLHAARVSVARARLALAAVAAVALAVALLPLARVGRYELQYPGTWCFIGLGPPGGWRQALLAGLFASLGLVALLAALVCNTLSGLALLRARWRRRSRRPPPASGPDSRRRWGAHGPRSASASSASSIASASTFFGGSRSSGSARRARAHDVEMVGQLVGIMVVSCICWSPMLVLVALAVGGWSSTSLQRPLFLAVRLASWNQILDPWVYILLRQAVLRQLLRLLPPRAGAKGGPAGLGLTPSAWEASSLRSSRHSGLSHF
Excerpt: as §1

T1 sequence (P43116 whole entry): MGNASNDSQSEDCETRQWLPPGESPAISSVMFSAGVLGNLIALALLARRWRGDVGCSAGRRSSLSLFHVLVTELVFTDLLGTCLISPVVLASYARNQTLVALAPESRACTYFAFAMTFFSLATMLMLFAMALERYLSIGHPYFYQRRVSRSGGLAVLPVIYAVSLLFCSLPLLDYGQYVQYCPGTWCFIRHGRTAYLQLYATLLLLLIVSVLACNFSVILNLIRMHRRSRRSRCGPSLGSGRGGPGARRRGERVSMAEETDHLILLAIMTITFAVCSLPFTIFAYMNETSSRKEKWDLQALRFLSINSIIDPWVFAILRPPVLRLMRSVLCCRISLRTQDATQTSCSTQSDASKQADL
T2 sequence (P35408 whole entry): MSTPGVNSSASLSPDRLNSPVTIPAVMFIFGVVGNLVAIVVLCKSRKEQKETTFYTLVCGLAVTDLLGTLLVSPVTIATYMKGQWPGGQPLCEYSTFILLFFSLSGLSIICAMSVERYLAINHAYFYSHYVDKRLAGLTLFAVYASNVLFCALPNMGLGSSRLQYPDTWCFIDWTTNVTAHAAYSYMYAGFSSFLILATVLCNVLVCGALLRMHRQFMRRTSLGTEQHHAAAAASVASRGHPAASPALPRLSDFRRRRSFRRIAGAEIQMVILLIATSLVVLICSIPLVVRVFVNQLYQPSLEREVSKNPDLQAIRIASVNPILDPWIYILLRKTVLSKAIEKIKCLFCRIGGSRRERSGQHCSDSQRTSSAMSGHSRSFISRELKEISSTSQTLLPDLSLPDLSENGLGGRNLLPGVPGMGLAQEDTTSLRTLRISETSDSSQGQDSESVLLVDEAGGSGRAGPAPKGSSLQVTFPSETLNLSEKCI

SMILES: CCCC=C[C@@H]1[C@@H](CCCc2ccc(C(=O)O)s2)[C@H](Cl)C[C@H]1O [Entry 7, 5-[3-((1R,2R,3R,5R)-5-Chloro-3-hydroxy-2-pent-1-enyl-cyclopentyl)-propyl]-thiophene-2-carboxylic acid]
EC50 [1]: 55 nM | EC50 [7]: 249 nM | EC50 [2]: 303 nM | EC50 [3]: 14800 nM | EC50 [8]: 1160 nM | EC50 [4]: 573 nM | Ki [6]: 60 nM

SMILES: CCCCCCCC[C@@H]1[C@@H](CCCc2ccc(C(=O)OCCO)s2)[C@H](Cl)C[C@H]1O [Entry 1-8, 5-[3-((1R,2R,3R,5R)-5-Chloro-3-hydroxy-2-octyl-cyclopentyl)-propyl]-thiophene-2-carboxylic acid 2-hydroxy-ethyl ester]
DOG Max. hyperemia [9]: 2.0 | DOG Max. ΔIOP [10]: 35% | MONKEY Max. ΔIOP [11]: 53%

SMILES: CCCCCC=C[C@@H]1[C@@H](CCCc2ccc(C(=O)O)s2)[C@H](Cl)C[C@H]1O [Entry 8, 5-[3-((1R,2R,3R,5R)-5-Chloro-2-hept-1-enyl-3-hydroxy-cyclopentyl)-propyl]-thiophene-2-carboxylic acid]
EC50 [1]: 8 nM | EC50 [7]: 230 nM | EC50 [2]: 112 nM | EC50 [3]: 9100 nM | EC50 [8]: 544 nM | EC50 [4]: 337 nM | Ki [5]: 186 nM | Ki [6]: 14 nM

SMILES: CCCCCCCCC[C@@H]1[C@@H](CCCc2ccc(C(=O)O)s2)[C@H](Cl)C[C@H]1O [Entry 5, 5-[3-((1R,2R,3R,5R)-5-Chloro-3-hydroxy-2-nonyl-cyclopentyl)-propyl]-thiophene-2-carboxylic acid]
EC50 [1]: 3 nM | EC50 [2]: 21 nM | EC50 [3]: > 10000 nM | EC50 [8]: 6660 nM | Ki [5]: 1230 nM | Ki [6]: 1.5 nM

SMILES: O=C(O)c1ccc(CCC[C@@H]2[C@@H](C=CCCCCCCO)[C@H](O)C[C@H]2Cl)s1 [Entry 6, 5-{3-[(1R,2R,3R,5R)-5-Chloro-3-hydroxy-2-(8-hydroxy-oct-1-enyl)-cyclopentyl]-propyl}-thiophene-2-carboxylic acid]
EC50 [1]: 14 nM | EC50 [2]: 531 nM | EC50 [12]: > 10000 nM | EC50 [4]: 1000 nM | Ki [6]: 37 nM

SMILES: CCCCC[C@@H]1[C@@H](CCCc2ccc(C(=O)O)s2)[C@H](Cl)C[C@H]1O [Entry 1, 5-[3-((1R,2R,3R,5R)-5-Chloro-3-hydroxy-2-pentyl-cyclopentyl)-propyl]-thiophene-2-carboxylic acid]
EC50 [1]: 1 nM | EC50 [7]: 187 nM | EC50 [2]: 74 nM | EC50 [3]: 9100 nM | EC50 [8]: 1740 nM | EC50 [4]: 2080 nM | Ki [6]: 6 nM

SMILES: CCCCCCCC[C@@H]1[C@@H](CCCc2ccc(C(=O)OC(C)C)s2)[C@H](Cl)C[C@H]1O [Entry 1-9]
DOG Max. hyperemia [9]: 0.9 | DOG Max. ΔIOP [10]: 22%

SMILES: CCCCCC[C@@H]1[C@@H](CCCc2ccc(C(=O)O)s2)[C@H](Cl)C[C@H]1O [Entry 2, 5-[3-((1R,2R,3R,5R)-5-Chloro-2-hexyl-3-hydroxy-cyclopentyl)-propyl]-thiophene-2-carboxylic acid]
EC50 [1]: 0.7 nM | EC50 [7]: 2990 nM | EC50 [2]: 405 nM | EC50 [3]: 9380 nM | EC50 [8]: 5990 nM | EC50 [4]: 1780 nM | Ki [5]: 754 nM | Ki [6]: 4 nM

Other lines, results leading:

EC50 [1]: 3.6 nM | EC50 [2]: 46 nM | EC50 [3]: 31400 nM | EC50 [4]: 253 nM | Ki [5]: 2390 nM | Ki [6]: 60 nM
SMILES: O=C(O)c1ccc(CCC[C@@H]2[C@@H](C=CCCCCCO)[C@H](O)C[C@H]2Cl)s1 [Entry 13, 5-{3-[(1R,2R,3R,5R)-5-Chloro-3-hydroxy-2-(7-hydroxy-hept-1-enyl)-cyclopentyl]-propyl}-thiophene-2-carboxylic acid]

EC50 [1]: 2 nM | EC50 [2]: 1160 nM | EC50 [3]: > 10000 nM | Ki [5]: 7100 nM | Ki [6]: 6 nM
SMILES: CCCCCCCCCC[C@@H]1[C@@H](CCCc2ccc(C(=O)O)s2)[C@H](Cl)C[C@H]1O [Entry 19, 5-(3-((1R,2R,3R,5R)-5-chloro-2-decyl-3-hydroxycyclopentyl)propyl)thiophene-2-carboxylic acid]

EC50 [1]: 15 nM | EC50 [2]: 512 nM | EC50 [3]: 34200 nM | EC50 [4]: 10500 nM | Ki [5]: 695 nM | Ki [6]: 18 nM
SMILES: CCCCCCCCC=C[C@@H]1[C@@H](CCCc2ccc(C(=O)O)s2)[C@H](Cl)C[C@H]1O [Entry 9, 5-[3-((1R,2R,3R,5R)-5-Chloro-2-dec-1-enyl-3-hydroxy-cyclopentyl)-propyl]-thiophene-2-carboxylic acid]

EC50 [1]: 5 nM | EC50 [2]: 26 nM | EC50 [12]: 86 nM | EC50 [3]: 42 nM | EC50 [8]: 421 nM | EC50 [4]: 7730 nM | Ki [5]: 577 nM | Ki [6]: 202 nM
SMILES: CCCCCC(O)/C=C/[C@@H]1[C@@H](CCCc2ccc(C(=O)O)s2)[C@H](Cl)C[C@H]1O (single isomer, unassigned) [Entry 16]

EC50 [1]: < 1 nM | EC50 [2]: 69 nM | EC50 [3]: > 10000 nM | EC50 [4]: 6130 nM | Ki [6]: 5 nM
SMILES: O=C(O)c1ccc(CCC[C@@H]2[C@@H](CCCCCCCCO)[C@H](O)C[C@H]2Cl)s1 [Entry 10, 5-{3-[(1R,2R,3R,5R)-5-Chloro-3-hydroxy-2-(8-hydroxy-octyl)-cyclopentyl]-propyl}-thiophene-2-carboxylic acid]

EC50 [1]: 4 nM | EC50 [2]: 15 nM | EC50 [3]: > 10000 nM | EC50 [8]: 3000 nM | EC50 [4]: 11700 nM | Ki [5]: 1110 nM | Ki [6]: 6 nM
SMILES: CCCCCCCC=C[C@@H]1[C@@H](CCCc2ccc(C(=O)O)s2)[C@H](Cl)C[C@H]1O [Entry 14, 5-[3-((1R,2R,3R,5R)-5-Chloro-3-hydroxy-2-non-1-enyl-cyclopentyl)-propyl]-thiophene-2-carboxylic acid]

EC50 [1]: 2 nM | EC50 [2]: 51 nM | EC50 [12]: 4930 nM | EC50 [3]: 713 nM | EC50 [8]: 593 nM | EC50 [4]: 2800 nM | Ki [6]: 18 nM
SMILES: CCCC/C=C/CC[C@@H]1[C@@H](CCCc2ccc(C(=O)O)s2)[C@H](Cl)C[C@H]1O [Entry 18, 5-(3-((1R,2R,3R,5R)-5-chloro-3-hydroxy-2-((E)-oct-3-enyl)cyclopentyl)propyl)thiophene-2-carboxylic acid]

EC50 [1]: 0.4 nM | EC50 [7]: 178 nM | EC50 [2]: 0.8 nM | EC50 [12]: 1.3 nM | EC50 [3]: 0.2 nM | EC50 [8]: 6 nM | EC50 [4]: 10 nM | Ki [5]: 4 nM | Ki [6]: 7 nM
SMILES: CCCCCC(O)/C=C/[C@@H]1[C@@H](CCCc2ccc(C(=O)O)s2)[C@H](Cl)C[C@H]1O (single isomer, unassigned) [Entry 15]

EC50 [1]: 0.3 nM | EC50 [2]: 10 nM | EC50 [3]: 23700 nM | EC50 [4]: 1950 nM | Ki [5]: 1520 nM | Ki [6]: 9 nM
SMILES: O=C(O)c1ccc(CCC[C@@H]2[C@@H](CCCCCCCO)[C@H](O)C[C@H]2Cl)s1 [Entry 11, 5-{3-[(1R,2R,3R,5R)-5-Chloro-3-hydroxy-2-(7-hydroxy-heptyl)-cyclopentyl]-propyl}-thiophene-2-carboxylic acid]
